According to patent US20060009425A1, “Oral formulations of paricalcitol” (priority 2004, published 2006):
Where two headings read alike, the source gives them in different places.

Key:
[1] = Bioavailability of capsule vs intravenous formulation, end-stage CKD on continuous peritoneal dialysis (Example 9); format: in vivo; conditions: human, plasma, 0.24 μg/kg; for half-life: CPD, read-out: harmonic mean of the terminal elimination half-life (converted)
Experimental: Methodology: This was a Phase I, open-label, randomized, single-dose, two-period, crossover, nonfasting study. Subjects were randomized into two sequence groups of
Formulations A and B. The two nonfasting study administrations were: […]
The strengths of the capsule formulations were 0.5, 1, 2 or 4 μg.
The intravenous formulation contained 2-10 micrograms/milliliter of paricalcitol, 30% (v/v) propylene glycol, 20% (v/v) ethanol and 50% (v/v) water.
Both formulations were administered immediately after CPD exchange in the morning, 30 minutes after breakfast was served. Phosphate binders, commonly used in the management of end-stage renal disease, were withheld 8 hours prior to and 2 hours after the drug administration. A washout interval of at least 7 days separated the doses of the two study periods.
Plasma concentrations of paricalcitol were determined using a validated HPLC-tandem mass spectrometric assay method at Abbott Laboratories, Abbott Park, Ill. The lower limit of quantitation of paricalcitol was 0.02 ng/mL using 0.6 mL of plasma.
Pharmacokinetic: The pharmacokinetic parameter values of paricalcitol were estimated using noncompartmental methods. These included: Cmax, t1/2, AUC0-t, AUC0-∞, CL, CL/F, Tmax, Vdβ and Vdβ/F, as described in the last example.
Statistical Methods: An analysis of variance (ANOVA) was performed for β and the logarithms of Cmax, AUC0-t and AUC0-∞. […] The number and percentage of subjects reporting adverse events were tabulated by COSTART term and body system. Laboratory values outside the reference ranges were flagged and evaluated for clinical significance.

[2] = Phase 3 once daily study, safety (Example 8)
Experimental: Additionally, safety was assessed by the incidence of adverse events, the change from baseline in chemistry, hematology and urinalysis laboratory variables, the change from baseline in subject vital signs, and progressive changes in renal function observed via changes in eGFR.
All randomized subjects who received at least 1 dose of study drug were used in safety analyses.
Secondary safety analyses also consisted of an analysis of “treatment-emergent” adverse events (i.e., adverse events with an onset date on or after the date the first dose of study drug was taken). Adverse events were summarized by body system and COSTART term according to the COSTART V adverse event-coding dictionary. Comparisons of the percentage of subjects experiencing an adverse event between the Paricalcitol and placebo treatment groups were performed using a Fisher's exact test.

## C[C@H](/C=C/[C@H](C)C(C)(C)O)[C@H]1CC[C@H]2/C(=C/C=C3C[C@@H](O)C[C@H](O)C3)CCC[C@]12C [Paricalcitol, 19-nor-1α,3β,25-trihydroxy-9,10-secoergosta-5(Z); 7(E),22(E)-triene]
[1]; following intravenous administration
  half-life: ~15 h
[1]; following oral administration
  half-life: ~18 h
[1]; single oral dose of capsule formulation, end-stage renal disease on CPD, read-out: absolute bioavailability
  bioavailability: 86.1%
[2]; CKD (Stages 3 and 4) subjects
  safety and tolerability: safe and well tolerated
[2]; Treatment Phase
  mean calcium values, range over scheduled visits: 9.24 to 9.54 mg/dL
[2]; Treatment and Follow-Up Phases
  subjects reporting serious adverse events: 7 subjects
[2]; hepatic encephalopathy, considered not related to study drug
  deaths: 1 subject
[2]; in vivo
  adverse event incidence: abdominal pain: 9%
  adverse event incidence: accidental injury: 17%
  adverse event incidence: allergic reaction: 9%
  adverse event incidence: cough increased: 9%
  adverse event incidence: diarrhea: 11%
  adverse event incidence: edema: 11%
  adverse event incidence: nausea: 9%
  adverse event incidence: pharyngitis: 14%
  adverse event incidence: rash: 11%
  adverse event incidence: vomiting: 11%
  phosphorus, mean change from baseline to Final Visit: -0.13 mg/dL
  serum calcium, mean change from baseline to Last On-Treatment Visit: 0.21 mg/dL
  subjects terminated prematurely due to adverse events: 4 subjects
  subjects who developed clinically meaningful hypercalcemia (at least 2 consecutive calcium values >10.5 mg/dL): 0/35
[2]; once daily, 24 weeks
  adverse events considered not related to study drug administration: 67%
  adverse events mild or moderate in severity: 93%
  subjects with treatment-emergent adverse events: 91%
